Results taken from PubChem BioAssay AID602176 (NMMLSC, 2012).
The source made the active and inactive calls. No rule for the calls is given here.

Molecular target: Botulinum neurotoxin type A (Clostridium botulinum (strain Hall / ATCC 3502 / NCTC 13319 / Type A)) (UniProt P0DPI1)
Test: Confirmatory dose response, Clostridium botulinum neurotoxin type A protease inhibitors, flow cytometry (AID 602176)
Conditions: multiplex microsphere protease substrate cleavage

Sequence of Botulinum neurotoxin type A (Clostridium botulinum (strain Hall / ATCC 3502 / NCTC 13319 / Type A)) (P0DPI1 whole entry, looked up): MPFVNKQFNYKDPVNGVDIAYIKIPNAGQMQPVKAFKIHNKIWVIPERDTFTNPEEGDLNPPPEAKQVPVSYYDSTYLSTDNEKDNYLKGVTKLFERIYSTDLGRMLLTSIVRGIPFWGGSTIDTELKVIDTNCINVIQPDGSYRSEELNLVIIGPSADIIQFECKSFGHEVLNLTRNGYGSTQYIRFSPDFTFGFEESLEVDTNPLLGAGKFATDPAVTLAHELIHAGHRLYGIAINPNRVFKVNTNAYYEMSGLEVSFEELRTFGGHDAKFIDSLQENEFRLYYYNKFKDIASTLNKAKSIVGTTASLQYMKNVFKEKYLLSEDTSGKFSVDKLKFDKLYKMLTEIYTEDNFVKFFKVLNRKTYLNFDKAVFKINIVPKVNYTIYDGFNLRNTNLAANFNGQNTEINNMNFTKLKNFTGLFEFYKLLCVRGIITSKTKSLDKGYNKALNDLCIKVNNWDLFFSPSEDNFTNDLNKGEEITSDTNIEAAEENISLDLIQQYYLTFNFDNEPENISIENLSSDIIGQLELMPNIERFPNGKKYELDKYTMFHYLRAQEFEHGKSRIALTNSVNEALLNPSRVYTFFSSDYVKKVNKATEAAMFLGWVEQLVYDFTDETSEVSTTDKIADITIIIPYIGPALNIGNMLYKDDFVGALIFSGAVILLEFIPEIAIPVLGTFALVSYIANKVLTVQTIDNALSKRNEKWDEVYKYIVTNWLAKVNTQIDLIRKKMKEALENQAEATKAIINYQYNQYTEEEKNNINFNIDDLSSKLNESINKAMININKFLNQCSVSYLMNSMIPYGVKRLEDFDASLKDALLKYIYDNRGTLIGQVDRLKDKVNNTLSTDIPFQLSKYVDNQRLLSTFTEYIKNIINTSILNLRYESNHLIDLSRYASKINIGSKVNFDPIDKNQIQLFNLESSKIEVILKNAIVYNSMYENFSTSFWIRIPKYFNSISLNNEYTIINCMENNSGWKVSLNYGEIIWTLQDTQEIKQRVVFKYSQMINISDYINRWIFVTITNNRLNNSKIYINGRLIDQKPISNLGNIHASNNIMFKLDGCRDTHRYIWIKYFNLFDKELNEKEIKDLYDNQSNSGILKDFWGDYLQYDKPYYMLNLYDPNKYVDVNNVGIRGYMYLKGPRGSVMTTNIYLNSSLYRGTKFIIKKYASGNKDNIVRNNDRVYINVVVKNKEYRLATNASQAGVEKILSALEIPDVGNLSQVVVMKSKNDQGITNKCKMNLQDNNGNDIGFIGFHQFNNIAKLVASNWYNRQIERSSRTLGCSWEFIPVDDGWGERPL

**Q.** For `Oc1[nH]c(N=C2N=c3ccccc3=N2)c2ccccc12`, which EC50 is on record?
**A.** > 20 µM (inactive)
